From the NIST ThermoML archive (doi:10.1021/acs.jced.5b00922)

Assay: mn = molality of the nth substance listed, in mol/kg
Settings: 100 kPa, Liquid; for viscosity: Capillary tube (Ostwald / Ubbelohde) method; for mass density: Pycnometric method

NCCCNCCCN [bis(3-aminopropyl)amine] + O
Settings | mass density [kg/m3] | viscosity [mPa·s]
298 K, m1 = 0.102 | 997.56 | 0.95
298 K, m1 = 0.313 | 997.47 | 1.07
298 K, m1 = 0.537 | 997.32 | 1.23
298 K, m1 = 0.773 | 997.12 | 1.41
298 K, m1 = 1.024 | 996.9 | 1.57
298 K, m1 = 1.291 | 996.71 | 1.74
303 K, m1 = 0.102 | 996.21 | 0.84
303 K, m1 = 0.313 | 996.12 | 0.95
303 K, m1 = 0.537 | 995.98 | 1.09
303 K, m1 = 0.773 | 995.83 | 1.24
303 K, m1 = 1.024 | 995.67 | 1.39
303 K, m1 = 1.291 | 995.53 | 1.55
308 K, m1 = 0.102 | 994.48 | 0.76
308 K, m1 = 0.313 | 994.37 | 0.85
308 K, m1 = 0.537 | 994.17 | 0.98
308 K, m1 = 0.773 | 994 | 1.1
308 K, m1 = 1.024 | 993.82 | 1.24
308 K, m1 = 1.291 | 993.64 | 1.38
313 K, m1 = 0.102 | 992.55 | 0.69
313 K, m1 = 0.313 | 992.43 | 0.77
313 K, m1 = 0.537 | 992.27 | 0.88
313 K, m1 = 0.773 | 992.1 | 0.99
313 K, m1 = 1.024 | 991.92 | 1.11
313 K, m1 = 1.291 | 991.73 | 1.23
318 K, m1 = 0.102 | 990.18 | 0.61
318 K, m1 = 0.313 | 989.94 | 0.69
318 K, m1 = 0.537 | 989.71 | 0.8
318 K, m1 = 0.773 | 989.48 | 0.9
318 K, m1 = 1.024 | 989.3 | 1
318 K, m1 = 1.291 | 989.09 | 1.11
323 K, m1 = 0.102 | 987.58 | 0.55
323 K, m1 = 0.313 | 987.36 | 0.63
323 K, m1 = 0.537 | 987.13 | 0.73
323 K, m1 = 0.773 | 986.93 | 0.81
323 K, m1 = 1.024 | 986.74 | 0.9
323 K, m1 = 1.291 | 986.55 | 0.98
